Patent publication US9630961B2, “Arginine methyltransferase inhibitors and uses thereof” (Epizyme, Inc., priority 2013, dated 2017)
pIC50: −log10 of the molar value.

Target: T1, CARM1 (PRMT4) (Homo sapiens, UniProt Q86X55)
T1 construct: Flag-CARM1-His; made in house; host or cells: HEK 293F cells (BacMam virus)
T1 sequence (Q86X55 1-585 isoform Q86X55-1): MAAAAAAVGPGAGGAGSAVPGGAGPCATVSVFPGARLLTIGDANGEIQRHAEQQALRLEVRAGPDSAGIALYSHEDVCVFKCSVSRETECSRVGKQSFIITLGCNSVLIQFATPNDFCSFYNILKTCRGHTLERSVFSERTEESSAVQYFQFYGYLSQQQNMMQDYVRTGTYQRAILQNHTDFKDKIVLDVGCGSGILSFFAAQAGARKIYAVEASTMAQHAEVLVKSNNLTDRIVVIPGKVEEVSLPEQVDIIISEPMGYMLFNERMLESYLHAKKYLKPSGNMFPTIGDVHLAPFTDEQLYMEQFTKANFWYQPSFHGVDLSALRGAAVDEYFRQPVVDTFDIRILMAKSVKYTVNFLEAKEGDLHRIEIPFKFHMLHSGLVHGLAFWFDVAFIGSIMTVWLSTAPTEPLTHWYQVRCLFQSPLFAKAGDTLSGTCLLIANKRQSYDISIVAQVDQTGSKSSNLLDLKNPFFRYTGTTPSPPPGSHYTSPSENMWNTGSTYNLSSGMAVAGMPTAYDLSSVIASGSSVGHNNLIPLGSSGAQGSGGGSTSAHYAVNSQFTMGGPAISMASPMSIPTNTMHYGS
Assay: CARM1 Biochemical Assay (3H-SAM Flashplate, peptide substrate)
Settings: 30 min preincubation, room temperature
Excerpt: S-adenosylmethionine (SAM), S-adenosylhomocysteine (SAH), bicine, Tween20, dimethylsulfoxide (DMSO), bovine skin gelatin (BSG), sodium butyrate and Tris(2-carboxyethyl)phosphine hydrochloride solution (TCEP) were purchased from Sigma-Aldrich at the highest level of purity possible. ^3H-SAM was purchase from American Radiolabeled Chemicals with a specific activity of 80 Ci/mmol. 384-well streptavidin Flashplates were purchased from PerkinElmer.
Peptide representative of human histone H3 residues 16-30 was synthesized with an N-terminal linker-affinity tag motif and a C-terminal amide cap by 21st Century Biochemicals. The peptide was purified by high-performance liquid chromatography (HPLC) to greater than 95% purity and confirmed by liquid chromatography mass spectrometry (LC-MS). The sequence was Biot-Ahx-[…]-amide and contained a monomethylated arginine at position 26 (SEQ ID NO.:14).
Human CARM1 (PRMT4) (NM_199141.1) transcript clone was amplified from an HEK 293 cDNA library, incorporating a flanking 5′ sequence encoding a FLAG tag ([…]) (SEQ ID NO.:6) fused directly to Ala 2 of CARM1 and 3′ sequence encoding a hexa His sequence ([…]) (SEQ ID NO.:15) fused directly to Ser 608. The gene sequence encoding isoform1 containing a deletion of amino acids 539-561 was amplified subsequently and subcloned into pFastBacMam (Viva Biotech).
Recombinant baculovirus were generated according to Bac-to-Bac kit instructions (Life Technologies). […] Infections were carried out at 37° C. for 48 hours, harvested by centrifugation, and stored at −80° C. for purification.
Column was washed with 500 mM NaCl in buffer A and Flag-CARM1-His was eluted with 200 ug/ml FLAG peptide in buffer A. Pooled fractions were dialyzed in 20 mM Tris, 150 mM NaCl, 5% glycerol and 1 mM DTT, pH 7.8. The purity of recovered protein was 94.
General Procedure for CARM1 Enzyme Assays on Peptide Substrates.
The assays were all performed in a buffer consisting of 20 mM Bicine (pH=7.6), 1 mM TCEP, 0.005% BSG, and 0.002% Tween 20, prepared on the day of use. Compounds in 100% DMSO (1 ul) were spotted into a polypropylene 384-well V-bottom plates (Greiner) using a Platemate Plus outfitted with a 384-channel head (Thermo Scientific). DMSO (1 ul) was added to Columns 11, 12, 23, 24, rows A-H for the maximum signal control and 1 ul of SAH, a known product and inhibitor of CARM1, was added to columns 11, 12, 23, 24, rows I-P for the minimum signal control. A cocktail (40 ul) containing the CARM1 enzyme was added by Multidrop Combi (Thermo-Fisher). The compounds were allowed to incubate with CARM1 for 30 min at room temperature, then a cocktail (10 ul) containing ^3H-SAM and peptide was added to initiate the reaction (final volume=51 ul). The final concentrations of the components were as follows: CARM1 was 0.25 nM, ^3H-SAM was 30 nM, peptide was 250 nM, SAH in the minimum signal control wells was 1 mM, and the DMSO concentration was 2%. The assays were stopped by the addition of non-radiolabeled SAM (10 ul) to a final concentration of 300 uM, which dilutes the ^3H-SAM to a level where its incorporation into the peptide substrate is no longer detectable. 50 ul of the reaction in the 384-well polypropylene plate was then transferred to a 384-well Flashplate and the biotinylated peptides were allowed to bind to the streptavidin surface for at least 1 hour before being washed once with 0.1% Tween20 in a Biotek ELx405 plate washer. The plates were then read in a PerkinElmer TopCount plate reader to measure the quantity of ^3H-labeled peptide bound to the Flashplate surface, measured as disintegrations per minute (dpm) or alternatively, referred to as counts per minute (cpm).
Where dpm=disintegrations per minute, cmpd=signal in assay well, and min and max are the respective minimum and maximum signal controls.
Where top and bottom are the normally allowed to float, but may be fixed at 100 or 0 respectively in a 3-parameter fit. […]

SMILES | pIC50
CN(CCN)Cc1c[nH]nc1-c1ccco1 [Compound 6] | 5.00 to 5.52
CN(CCN)Cc1c[nH]nc1-c1ccsc1 [Compound 3] | 5.00 to 5.52
CN(CCN)Cc1c[nH]nc1-c1ccoc1 [Compound 7] | 5.00 to 5.52
CN(CCN)Cc1c[nH]nc1-c1cncnc1 [Compound 4] | ≤ 5.00
CN(CCN)Cc1c[nH]nc1-c1cccs1 [Compound 5] | ≤ 5.00

Second part, the compound after the results:

pIC50 | SMILES
6.00 to 7.00 | CN(CCN)Cc1c[nH]nc1-c1cnc2[nH]ccc2c1 [Compound 13]
≤ 5.00 | Cc1noc(C)c1-c1n[nH]cc1CN(C)CCN [Compound 10]
≤ 5.00 | COc1ncc(-c2n[nH]cc2CN(C)CCN)cn1 [Compound 11]
≤ 5.00 | CN(CCN)Cc1c[nH]nc1-c1cn[nH]c1 [Compound 12]
5.00 to 5.52 | CN(CCN)Cc1c[nH]nc1-c1cnn(C)c1 [Compound 8]
≤ 5.00 | CN(CCN)Cc1c[nH]nc1-c1cc[nH]n1 [Compound 14]
5.52 to 6.00 | CN(CCN)Cc1c[nH]nc1-c1ccc2scnc2c1 [Compound 9]
